Values of other authors in patent publication US20200281134A1, “GROWTH SUBSTRATE PRODUCT” (ROCKWOOL International A/S, priority 2015, published 2020).

Conditions: 3-hydroxy group

pKa: 4.04
Structure (SMILES): O=C1O[C@H]([C@@H](O)CO)C(O)=C1O [ascorbic acid, Ascorbic acid]
